# Laboratory results reported in the supplement of paper PMC11061612.
# Key:
# Assay in all cases: Bliss excess, mean over the matrix (fraction); higher = more synergy
# [1] = test system: NCI-H3122 (Lung Adenocarcinoma)
# Method in brief: (§1)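 Cell lines in DMEM/F12 or RPMI with 10% FBS were plated in 1536-well plates, held 24 hours at 37°C, 5% CO2, then given two-drug dose matrices for 72 hours (DMSO typically 0.2%). Viability was read by CellTiter-Glo 2.0 luminescence and scaled as inhibition from 0 (vehicle wells) to 1 (blank wells). Combination Emax is the second-highest inhibition in the matrix; Bliss excess is observed combination effect minus expected EA + EB − EA·EB, EA and EB being single-agent effects.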
# [2] = test system: DMS-114 (Small Cell Lung Carcinoma)
# Method in brief: as §1
# [3] = test system: NCI-H929 (Plasma Cell Myeloma)
# Method in brief: as §1
# [4] = test system: MOG-G-CCM (Low Grade Glioma)
# Method in brief: as §1
# [5] = test system: NCCIT (Other Solid Carcinomas)
# Method in brief: as §1
# [6] = test system: G-361 (Melanoma)
# Method in brief: as §1
# [7] = test system: RPMI-8226 (Plasma Cell Myeloma)
# Method in brief: as §1
# [8] = test system: NCI-H661 (Non-Small Cell Lung Carcinoma)
# Method in brief: as §1
# [9] = test system: 8505C (Thyroid Gland Carcinoma)
# Method in brief: as §1
# [10] = test system: H9 (T-Cell Non-Hodgkin's Lymphoma)
# Method in brief: as §1
# [11] = test system: KY821 (Acute Myeloid Leukemia)
# Method in brief: as §1
# [12] = test system: SU-DHL-5 (B-Cell Non-Hodgkin's Lymphoma)
# Method in brief: as §1
# [13] = test system: CW-2 (Colorectal Carcinoma)
# Method in brief: as §1
# [14] = test system: JHH-4 (Hepatocellular Carcinoma)
# Method in brief: as §1
# [15] = test system: COR-L279 (Small Cell Lung Carcinoma)
# Method in brief: as §1
# [16] = test system: VMRC-RCZ (Kidney Carcinoma)
# Method in brief: as §1
# [17] = test system: SK-GT-4 (Esophageal Adenocarcinoma)
# Method in brief: as §1
# [18] = test system: KU812 (Chronic Myelogenous Leukemia)
# Method in brief: as §1
# [19] = test system: PC-3 (Prostate Carcinoma)
# Method in brief: as §1
# [20] = test system: RD (Rhabdomyosarcoma)
# Method in brief: as §1
SMILES,Bliss excess [1],Bliss excess [2],Bliss excess [3],Bliss excess [4],Bliss excess [5],Bliss excess [6],Bliss excess [7],Bliss excess [8],Bliss excess [9],Bliss excess [10],Bliss excess [11],Bliss excess [12],Bliss excess [13],Bliss excess [14],Bliss excess [15],Bliss excess [16],Bliss excess [17],Bliss excess [18],Bliss excess [19],Bliss excess [20]
"C=CCn1c(=O)c2cnc(Nc3ccc(N4CCN(C)CC4)cc3)nc2n1-c1cccc(C(C)(C)O)n1 [AZD1775] + C[C@@H]1COCCN1C2=NC(=NC(=C2)C3(CC3)[S@](=N)(=O)C)C4=C5C=CNC5=NC=C4 [AZD6738] (first compound max 1 µM, partner max 10 µM)",0.0165,0.0422,-0.0042,0.0195,0.0526,-0.0177,0.0407,0.0157,-0.0076,0.0607,0.0358,0.0446,0.0554,0.0007,0.0131,-0.0639,0.0046,0.0459,-0.0049,0.0125
"CC1(C)CCC(CN2CCN(c3ccc(C(=O)NS(=O)(=O)c4ccc(NCC5CCOCC5)c([N+](=O)[O-])c4)c(Oc4cnc5[nH]ccc5c4)c3)CC2)=C(c2ccc(Cl)cc2)C1 [Venetoclax] + C[C@@H](Nc1cc(F)cc(F)c1)c1cc(C(=O)N(C)C)cc2c(=O)cc(N3CCOCC3)oc12 [AZD8186] (first compound max 1 µM, 7x7, partner max 3 µM)",-0.0311,-0.0297,-0.007,0.0384,-0.0336,0.0075,0.037,-0.0241,-0.024,-0.0159,0.0235,0.0358,-0.007,0.0064,0.0138,-0.0215,-0.0263,-0.024,0.0065,0.0032
"CN(CCO)CC[C@H](CSc1ccccc1)Nc1ccc(S(=O)(=O)NC(=O)c2ccc(N3CCC([C@@H](O)c4ccccc4-c4ccc(Cl)cc4)CC3)cc2)cc1S(=O)(=O)C(F)(F)F [AZD4320] + C[C@@H]1COCCN1C2=NC(=NC(=C2)C3(CC3)[S@](=N)(=O)C)C4=C5C=CNC5=NC=C4 [AZD6738] (first compound max 1 µM, 7x7, partner max 10 µM)",-0.0965,0.0073,-0.0097,-0.0311,-0.0331,-0.0395,0.0338,-0.0197,-0.0298,-0.0283,-0.0241,-0.0426,-0.0321,-0.0657,0.0292,-0.0331,-0.0873,0.0007,-0.0367,-0.0334
"CC1(C)CCC(CN2CCN(c3ccc(C(=O)NS(=O)(=O)c4ccc(NCC5CCOCC5)c([N+](=O)[O-])c4)c(Oc4cnc5[nH]ccc5c4)c3)CC2)=C(c2ccc(Cl)cc2)C1 [Venetoclax] + CCN(CCO)CCCOc1ccc2c(Nc3cc(CC(=O)Nc4cccc(F)c4)[nH]n3)ncnc2c1 [AZD2811] (first compound max 1 µM, 7x7, partner max 1 µM)",-0.0229,-0.0334,0.101,-0.0061,0.0139,-0.0163,0.0361,-0.0105,-0.0133,-0.0616,0.002,-0.125,0.0269,-0.0152,0.0501,-0.0391,-0.0295,-0.0433,-0.0668,-0.0311
